Source: patent US11766425B2, “Antibiotic combination therapies” (BIOVERSYS AG, priority 2019, dated 2023)
Read-outs that look alike come from different tables or passages of the source.

How the values were obtained:
Type in all cases: cell-based, Acinetobacter baumannii
[1] = system: panel of MDR clinical isolates of A. baumannii
Method: (§1) Checkerboards were performed according to the CLSI parameters used for microbroth dilution MIC5. CA-MHB, iron-depleted CA-MHB (ID-CA-MHB) or RPMI supplemented with 10% FCS medium were used as specified and ID-CA-MHB was prepared according to CLSI guidelines. […] FICI is calculated as follows: […]

[2] = system: A. baumannii LAC-4 strain; test: broth microdilution checkerboard MIC/synergy; conditions: for FICI / Interpretation: second antibiotic in combination with rifabutin, LAC-4; for MICs combi: strain LAC-4
Method: as §1
The checkerboards were performed in CA-MHB or ID-CA-MHB for cefiderocol.

A. baumannii 401255-18 = test: broth microdilution checkerboard MIC/synergy; conditions: for MIC: Acinetobacter baumannii, 40125518, strain 401255-18, antibiotic alone, read-out: MICs alone; for MICs combi: strain 401255-18
Method: as §1

A. baumannii HUMC1 = test: broth microdilution checkerboard MIC/synergy; conditions: for MIC: Acinetobacter baumannii, HUMC1, read-out: MICs alone; for MICs combi: strain HUMC1
Method: as §1

A. baumannii UNT087-1 = test: broth microdilution checkerboard MIC/synergy; conditions: for MIC: Acinetobacter baumannii, UNT0871, strain UNT087-1, antibiotic alone, read-out: MICs alone; for MICs combi: strain UNT087-1
Method: as §1

A. baumannii 402292-17 = test: broth microdilution checkerboard MIC/synergy; conditions: for MIC: Acinetobacter baumannii, 40229217, strain 402292-17, antibiotic alone, read-out: MICs alone; for MICs combi: strain 402292-17
Method: as §1

A. baumannii UNT091-1 = test: broth microdilution checkerboard MIC/synergy; conditions: for MIC: Acinetobacter baumannii, UNT0911, strain UNT091-1, antibiotic alone, read-out: MICs alone
Method: as §1

A. baumannii IHMA919656 = test: broth microdilution checkerboard MIC/synergy; conditions: for MICs combi: strain IHMA919656
Method: as §1

A. baumannii UNT238-1 = test: broth microdilution checkerboard MIC/synergy; conditions: ID-CA-MHB
Method: as §1

A. baumannii IHMA867231 = test: broth microdilution checkerboard MIC/synergy; conditions: for MIC: Acinetobacter baumannii, IHMA867231, strain IHMA867231, antibiotic alone, read-out: MICs alone; for MICs combi: strain IHMA867231
Method: as §1

A. baumannii 402608-17 = test: broth microdilution checkerboard MIC/synergy; conditions: for MIC: Acinetobacter baumannii, 40260817, strain 402608-17, antibiotic alone, read-out: MICs alone; for MICs combi: strain 402608-17
Method: as §1

A. baumannii UNT191-1 = test: broth microdilution checkerboard MIC/synergy; conditions: for MIC: Acinetobacter baumannii, UNT1911, strain UNT191-1, antibiotic alone, read-out: MICs alone; for MICs combi: strain UNT191-1
Method: as §1

A. baumannii IHMA1013816 = test: broth microdilution checkerboard MIC/synergy; conditions: for MICs combi: strain IHMA1013816
Method: as §1

A. baumannii IHMA690517 = test: broth microdilution checkerboard MIC/synergy; conditions: for MIC: Acinetobacter baumannii, IHMA690517, strain IHMA690517, antibiotic alone, read-out: MICs alone; for MICs combi: strain IHMA690517
Method: as §1

A. baumannii IHMA863866 = test: broth microdilution checkerboard MIC/synergy
Method: as §1

A. baumannii 401046-18 = test: broth microdilution checkerboard MIC/synergy; conditions: for MIC: Acinetobacter baumannii, 40104618, strain 401046-18, antibiotic alone, read-out: MICs alone; for MICs combi: strain 401046-18
Method: as §1

A. baumannii UNT239-1 = test: broth microdilution checkerboard MIC/synergy; conditions: for MICs combi: strain UNT239-1
Method: as §1

[3] = rifabutin/cefiderocol in combination, ID-CA-MHB
[4] = rifabutin/cefiderocol checkerboard
[5] = rifabutin/cefiderocol in combination
[6] = rifabutin/cefiderocol checkerboard, ID-CA-MHB
[7] = rifampicin/colistin in combination
[8] = rifampicin/colistin checkerboard

CC(C)(O/N=C(\C(=O)N[C@@H]1C(=O)N2C(C(=O)[O-])=C(C[N+]3(CCNC(=O)c4ccc(O)c(O)c4Cl)CCCC3)CS[C@H]12)c1csc(N)n1)C(=O)O [Cefiderocol, cefiderocol]
decrease in the MIC of cefiderocol ([1]; in combination with rifabutin, all A. baumannii strains tested (16 MDR isolates)): ≥ 4 fold | strains on which synergy was observed ([1]; rifabutin/cefiderocol, panel of strains): 100% | MIC ([2]; Acinetobacter baumannii, LAC4STRAIN, read-out: MICs alone): 1 µg/mL | FICI ([2]; ID-CA-MHB): 0.5 | Interpretation ([2]; ID-CA-MHB): synergy (synergy (FICI≤0.5)) | MICs combi [2, 3]: 0.25 mg/L | MIC (A. baumannii 401255-18; [4]): 16 µg/mL | MICs combi (A. baumannii 401255-18; [5]): 4 mg/L | MIC (A. baumannii HUMC1): 2 µg/mL | MICs combi (A. baumannii HUMC1; [5]): 0.5 mg/L | MIC (A. baumannii UNT087-1; [4]): 0.5 µg/mL | MICs combi (A. baumannii UNT087-1; [5]): 0.125 mg/L | MIC (A. baumannii 402292-17; [4]): > 32 µg/mL | MICs combi (A. baumannii 402292-17; [5]): 8 mg/L | MIC (A. baumannii UNT091-1; [4]): 4 µg/mL | MICs combi (A. baumannii UNT091-1; strain UNT091-1, rifabutin/cefiderocol in combination): 1 mg/L | MIC (A. baumannii IHMA919656; Acinetobacter baumannii, IHMA919656, strain IHMA919656, antibiotic alone, rifabutin/cefiderocol checkerboard, read-out: MICs alone): 0.125 µg/mL | MICs combi (A. baumannii IHMA919656; [5]): 0.03 mg/L | MIC (A. baumannii UNT238-1; Acinetobacter baumannii, UNT2381, strain UNT238-1, antibiotic alone, rifabutin/cefiderocol checkerboard, read-out: MICs alone): 4 µg/mL | MICs combi (A. baumannii UNT238-1; strain UNT238-1, rifabutin/cefiderocol in combination): 1 mg/L | MIC (A. baumannii IHMA867231; [4]): 1 µg/mL | MICs combi (A. baumannii IHMA867231; [5]): 0.25 mg/L | MIC (A. baumannii 402608-17; [4]): 8 µg/mL | MICs combi (A. baumannii 402608-17; [5]): 2 mg/L | MIC (A. baumannii UNT191-1; [6]): 16 µg/mL | MICs combi (A. baumannii UNT191-1; [3]): 4 mg/L | MIC (A. baumannii IHMA1013816; Acinetobacter baumannii, IHMA1013816, strain IHMA1013816, antibiotic alone, rifabutin/cefiderocol checkerboard, read-out: MICs alone): 0.06 µg/mL | MICs combi (A. baumannii IHMA1013816; [5]): 0.016 mg/L | MIC (A. baumannii IHMA690517; [4]): 0.25 µg/mL | MICs combi (A. baumannii IHMA690517; [5]): 0.06 mg/L | MIC (A. baumannii IHMA863866; Acinetobacter baumannii, IHMA863866, read-out: MICs alone): 4 µg/mL | MICs combi (A. baumannii IHMA863866; strain IHMA863866, rifabutin/cefiderocol in combination): 1 mg/L | MIC (A. baumannii 401046-18; [6]): 128 µg/mL | MICs combi (A. baumannii 401046-18; [3]): 32 mg/L | MIC (A. baumannii UNT239-1; Acinetobacter baumannii, UNT2391, read-out: MICs alone): 4 µg/mL | MICs combi (A. baumannii UNT239-1; [3]): 1 mg/L

CO/N=C(\C(=O)N[C@@H]1C(=O)N2C(C(=O)O)=C(COC(C)=O)CS[C@H]12)c1csc(N)n1 [Cefotaxime, cefotaxime]
FICI ([2]; CA-MHB): 1.5 | Interpretation ([2]; CA-MHB): indifferent (indifferent (FICI>0.50 and ≤4))

CN(C)[C@@H]1C(O)=C(C(N)=O)C(=O)[C@@]2(O)C(O)=C3C(=O)c4c(O)c(NC(=O)CN5CCCC5)cc(F)c4C[C@H]3C[C@@H]12 [Eravacycline, eravacycline]
FICI ([2]; CA-MHB): 1 | Interpretation ([2]; CA-MHB): indifferent (indifferent (FICI>0.50 and ≤4))

C[C@@H](O)[C@H]1C(=O)N2C(C(=O)O)=C(S[C@@H]3CN[C@H](C(=O)N(C)C)C3)[C@H](C)[C@H]12 [Meropenem, meropenem]
FICI ([2]; CA-MHB): 1 | Interpretation ([2]; CA-MHB): indifferent (indifferent (FICI>0.50 and ≤4))

CN(C)c1ccc(O)c2c1C[C@H]1C[C@H]3[C@H](N(C)C)C(O)=C(C(N)=O)C(=O)[C@@]3(O)C(O)=C1C2=O [Minocycline, minocycline]
FICI ([2]; CA-MHB): 1 | Interpretation ([2]; CA-MHB): indifferent (indifferent (FICI>0.50 and ≤4))

CO[C@H]1/C=C/O[C@@]2(C)Oc3c(C)c(O)c4c(O)c(c(/C=N/N5CCN(C)CC5)c(O)c4c3C2=O)NC(=O)/C(C)=C\C=C\[C@H](C)[C@H](O)[C@@H](C)[C@@H](O)[C@@H](C)[C@H](OC(C)=O)[C@@H]1C [Rifampicin, rifampicin]
rifampicin combination MICs ([1]; in combination with colistin, isolates with mutations in the rpoB gene): ≥ 32 mg/L | strains on which synergy was observed ([1]; rifampicin with colistin): 88% | MICs combi [2, 7]: 0.06 mg/L | MIC (A. baumannii 401255-18; [8]): 512 µg/mL | MICs combi (A. baumannii 401255-18; [7]): 128 mg/L | MIC (A. baumannii HUMC1): 4 µg/mL | MICs combi (A. baumannii HUMC1; [7]): 1 mg/L | MIC (A. baumannii UNT087-1; [8]): 4 µg/mL | MICs combi (A. baumannii UNT087-1; [7]): 4 mg/L | MIC (A. baumannii 402292-17; [8]): 512 µg/mL | MICs combi (A. baumannii 402292-17; [7]): 256 mg/L | MIC (A. baumannii UNT091-1; [8]): 4 µg/mL | MICs combi (A. baumannii IHMA919656; [7]): 0.03 mg/L | MIC (A. baumannii IHMA867231; [8]): 512 µg/mL | MICs combi (A. baumannii IHMA867231; [7]): 32 mg/L | MIC (A. baumannii 402608-17; [8]): 512 µg/mL | MICs combi (A. baumannii 402608-17; [7]): 64 mg/L | MIC (A. baumannii UNT191-1; [8]): 4 µg/mL | MICs combi (A. baumannii UNT191-1; [7]): 0.25 mg/L | MICs combi (A. baumannii IHMA1013816; [7]): 0.06 mg/L | MIC (A. baumannii IHMA690517; [8]): 4 µg/mL | MICs combi (A. baumannii IHMA690517; [7]): 0.06 mg/L | MIC (A. baumannii 401046-18; [8]): 512 µg/mL | MICs combi (A. baumannii 401046-18; [7]): 64 mg/L | MICs combi (A. baumannii UNT239-1; [7]): 0.25 mg/L

NC[C@H]1O[C@H](O[C@H]2[C@H](O)[C@@H](O[C@H]3O[C@H](CO)[C@@H](O)[C@H](N)[C@H]3O)[C@H](N)C[C@@H]2N)[C@H](N)C[C@@H]1O [Tobramycin, tobramycin]
FICI ([2]; CA-MHB): 1.5 | Interpretation ([2]; CA-MHB): indifferent (indifferent (FICI>0.50 and ≤4))
